Legend:
human orexin-2 receptor = human orexin-2 receptor (Homo sapiens (Human), UniProt O43614); assay: In vitro assay: intracellular calcium measurements (FLIPR), antagonistic activity; assay type: cell-based; details: CHO cells, 3 nM orexin-A, compound incubation 120 min; marked values are geometric means of n = 2-6; read-out: IC50 OX2
human orexin-1 receptor = human orexin-1 receptor (Homo sapiens (Human), UniProt O43613); assay: as above; assay type: cell-based; details: CHO cells, 3 nM orexin-A, compound incubation 120 min; marked values are geometric means of n = 2-6; read-out: IC50 OX1
Chain of human orexin-1 receptor (O43613 whole entry): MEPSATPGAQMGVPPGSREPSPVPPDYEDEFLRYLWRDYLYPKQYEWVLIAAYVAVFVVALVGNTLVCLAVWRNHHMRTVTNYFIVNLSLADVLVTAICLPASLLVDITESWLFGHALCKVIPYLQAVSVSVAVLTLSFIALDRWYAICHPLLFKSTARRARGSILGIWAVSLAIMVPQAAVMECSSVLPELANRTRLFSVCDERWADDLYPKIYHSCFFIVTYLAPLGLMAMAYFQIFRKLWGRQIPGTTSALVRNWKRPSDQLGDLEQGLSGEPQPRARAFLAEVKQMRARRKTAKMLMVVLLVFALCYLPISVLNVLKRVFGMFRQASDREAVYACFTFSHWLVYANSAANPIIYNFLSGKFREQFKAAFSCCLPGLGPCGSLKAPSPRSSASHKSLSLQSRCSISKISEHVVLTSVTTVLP

Chain of human orexin-2 receptor (O43614 whole entry): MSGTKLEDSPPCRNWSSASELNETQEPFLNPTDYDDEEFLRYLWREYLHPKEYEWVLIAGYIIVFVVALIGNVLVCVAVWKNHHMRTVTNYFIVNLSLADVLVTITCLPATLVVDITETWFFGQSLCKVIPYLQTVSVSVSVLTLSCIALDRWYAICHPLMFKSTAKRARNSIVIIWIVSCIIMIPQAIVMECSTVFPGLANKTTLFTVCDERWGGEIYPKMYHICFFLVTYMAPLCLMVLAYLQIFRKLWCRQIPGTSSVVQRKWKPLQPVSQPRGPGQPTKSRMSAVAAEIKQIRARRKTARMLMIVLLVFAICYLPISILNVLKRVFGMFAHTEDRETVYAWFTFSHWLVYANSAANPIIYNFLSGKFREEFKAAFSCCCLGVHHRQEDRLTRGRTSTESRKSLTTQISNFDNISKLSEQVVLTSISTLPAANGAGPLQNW

SMILES | IC50 (human orexin-2 receptor) | IC50 (human orexin-1 receptor)
COc1cccc(OC)c1C1CCCC(=O)N1Cc1ccnc(Br)c1 (centres unmarked) [Example 36, 1-((2-bromopyridin-4-yl)methyl)-6-(2,6-dimethoxyphenyl)piperidin-2-one] | 1150 nM | 1570 nM
COc1cccc(OC)c1C1CCCC(=O)N1Cc1cccc(-c2ccccn2)c1F (centres unmarked) [Example 37, 6-(2,6-dimethoxyphenyl)-1-(2-fluoro-3-(pyridin-2-yl)benzyl)piperidin-2-one] | 64 nM | 72 nM
COc1cccc(OC)c1C1CCCC(=O)N1Cc1cccc(-c2ccccn2)n1 (centres unmarked) [Example 38, 1-([2,2′-bipyridin]-6-ylmethyl)-6-(2,6-dimethoxyphenyl)piperidin-2-one] | 87 nM | 153 nM
COc1cccc(OC)c1C1CCCC(=O)N1Cc1cccc(-c2nccs2)n1 (centres unmarked) [Example 39, 6-(2,6-dimethoxyphenyl)-1-((6-(thiazol-2-yl)pyridin-2-yl)methyl)piperidin-2-one] | 147 nM | 179 nM
COc1cccc(OC)c1C1CCCC(=O)N1Cc1cc(-c2ccccn2)ccc1F (centres unmarked) [Example 40, 6-(2,6-dimethoxyphenyl)-1-(2-fluoro-5-(pyridin-2-yl)benzyl)piperidin-2-one] | 696 nM | 75 nM
COc1cccc(OC)c1C1CCCC(=O)N1Cc1ccc(F)c(-c2ccccn2)c1 (centres unmarked) [Example 41, 6-(2,6-dimethoxyphenyl)-1-(4-fluoro-3-(pyridin-2-yl)benzyl)piperidin-2-one] | 26 nM | 18 nM
COc1cccc(OC)c1C1CCCC(=O)N1Cc1cccc(-c2cncs2)c1 (centres unmarked) [Example 42, 6-(2,6-dimethoxyphenyl)-1-(3-(thiazol-5-yl)benzyl)piperidin-2-one] | 17 nM | 25 nM
COc1cccc(OC)c1C1CCCC(=O)N1Cc1cccc(-c2ncc(C)s2)c1 (centres unmarked) [Example 43, 6-(2,6-dimethoxyphenyl)-1-(3-(5-methylthiazol-2-yl)benzyl)piperidin-2-one] | 6 nM | 6 nM
COc1cccc(OC)c1C1CCCC(=O)N1Cc1cccc(-n2nccn2)c1 (centres unmarked) [Example 44, 1-(3-(2H-1,2,3-triazol-2-yl)benzyl)-6-(2,6-dimethoxyphenyl)piperidin-2-one] | 19 nM | 14 nM
COc1cccc(OC)c1C1CCCC(=O)N1Cc1cccc(-c2cscn2)c1 (centres unmarked) [Example 45, 6-(2,6-dimethoxyphenyl)-1-(3-(thiazol-4-yl)benzyl)piperidin-2-one] | 17 nM | 12 nM
COc1cccc(OC)c1C1CCCC(=O)N1Cc1cccc(-n2ccnn2)c1 (centres unmarked) [Example 46, 1-(3-(1H-1,2,3-triazol-1-yl)benzyl)-6-(2,6-dimethoxyphenyl)piperidin-2-one] | 239 nM | 440 nM
COc1cccc(OC)c1C1CCCC(=O)N1Cc1ccc2nc(C)sc2c1 (centres unmarked) [Example 47, 6-(2,6-dimethoxyphenyl)-1-((2-methylbenzo[d]thiazol-6-yl)methyl)piperidin-2-one] | 165 nM | 187 nM
COc1cccc(OC)c1C1CCCC(=O)N1Cc1cc(-c2ccccn2)ccc1Cl (centres unmarked) [Example 48, 1-(2-chloro-5-(pyridin-2-yl)benzyl)-6-(2,6-dimethoxyphenyl)piperidin-2-one] | 625 nM | 169 nM
COc1cccc(OC)c1C1CCCC(=O)N1Cc1cc(Cl)cc(-c2ccccn2)c1 (centres unmarked) [Example 49, 1-(3-chloro-5-(pyridin-2-yl)benzyl)-6-(2,6-dimethoxyphenyl)piperidin-2-one] | 11 nM | 28 nM
COc1cccc(OC)c1C1CCCC(=O)N1Cc1ccnc(-c2ccccn2)c1 (centres unmarked) [Example 50, 1-([2,2′-bipyridin]-4-ylmethyl)-6-(2,6-dimethoxyphenyl)piperidin-2-one] | 119 nM | 39 nM
COc1cccc(OC)c1C1CCCC(=O)N1Cc1ccnc(-n2cccn2)c1 (centres unmarked) [Example 52, 1-((2-(1H-pyrazol-1-yl)pyridin-4-yl)methyl)-6-(2,6-dimethoxyphenyl)piperidin-2-one] | 80 nM | 14 nM
COc1ccnc(OC)c1C1CCCC(=O)N1Cc1cccc(-c2nccs2)c1 (centres unmarked) [Example 53, 6-(2,4-dimethoxypyridin-3-yl)-1-(3-(thiazol-2-yl)benzyl)piperidin-2-one] | 22 nM | 33 nM
COc1ccnc(OC)c1C1CCCC(=O)N1Cc1cccc(-c2csc(C)n2)c1 (centres unmarked) [Example 54, 6-(2,4-dimethoxypyridin-3-yl)-1-(3-(2-methylthiazol-4-yl)benzyl)piperidin-2-one] | 13 nM | 15 nM
COc1ccnc(OC)c1C1CCCC(=O)N1Cc1cccc(-c2ccccn2)c1 (centres unmarked) [Example 55, 6-(2,4-dimethoxypyridin-3-yl)-1-(3-(pyridin-2-yl)benzyl)piperidin-2-one] | 95 nM | 96 nM
COc1ccnc(OC)c1C1CCCC(=O)N1Cc1csc(-c2ccccc2)n1 (centres unmarked) [Example 56, 6-(2,4-dimethoxypyridin-3-yl)-1-((2-phenylthiazol-4-yl)methyl)piperidin-2-one] | 6 nM | 141 nM

SMILES | IC50 (human orexin-2 receptor) | IC50 (human orexin-1 receptor)
COc1ccnc(OC)c1C1CCCC(=O)N1Cc1ccc2oc3ccccc3c2c1 (centres unmarked) [Example 57, 1-(dibenzo[b,d]furan-2-ylmethyl)-6-(2,4-dimethoxypyridin-3-yl)piperidin-2-one] | 3 nM | 5 nM
COc1ccnc(OC)c1C1CCCC(=O)N1Cc1ccc2nc(C)sc2c1 (centres unmarked) [Example 58, 6-(2,4-dimethoxypyridin-3-yl)-1-((2-methylbenzo[d]thiazol-6-yl)methyl)piperidin-2-one] | 1530 nM | 2560 nM
COc1ccnc(OC)c1C1CCCC(=O)N1Cc1ccc(F)c(-c2ccccn2)c1 (centres unmarked) [Example 59, 6-(2,4-dimethoxypyridin-3-yl)-1-(4-fluoro-3-(pyridin-2-yl)benzyl)piperidin-2-one] | 135 nM | 207 nM
COc1ccnc(OC)c1C1CCCC(=O)N1Cc1cccc(-c2ccccc2)c1 (centres unmarked) [Example 60, 1-([1,1′-biphenyl]-3-ylmethyl)-6-(2,4-dimethoxypyridin-3-yl)piperidin-2-one] | 34 nM | 39 nM
COc1cncc(OC)c1C1CCCC(=O)N1Cc1cccc(-c2nccs2)c1 (centres unmarked) [Example 61, 6-(3,5-dimethoxypyridin-4-yl)-1-(3-(thiazol-2-yl)benzyl)piperidin-2-one] | 26 nM | 40 nM
COc1cncc(OC)c1C1CCCC(=O)N1Cc1cccc(-c2csc(C)n2)c1 (centres unmarked) [Example 62, 6-(3,5-dimethoxypyridin-4-yl)-1-(3-(2-methylthiazol-4-yl)benzyl)piperidin-2-one] | 33 nM | 25 nM
COc1cncc(OC)c1C1CCCC(=O)N1Cc1cccc(-c2ccccn2)c1 (centres unmarked) [Example 63, 6-(3,5-dimethoxypyridin-4-yl)-1-(3-(pyridin-2-yl)benzyl)piperidin-2-one] | 90 nM | 135 nM
COc1cncc(OC)c1C1CCCC(=O)N1Cc1csc(-c2ccccc2)n1 (centres unmarked) [Example 64, 6-(3,5-dimethoxypyridin-4-yl)-1-((2-phenylthiazol-4-yl)methyl)piperidin-2-one] | 246 nM | 618 nM
COc1cncc(OC)c1C1CCCC(=O)N1Cc1ccc2oc3ccccc3c2c1 (centres unmarked) [Example 65, 1-(dibenzo[b,d]furan-2-ylmethyl)-6-(3,5-dimethoxypyridin-4-yl)piperidin-2-one] | 1 nM | 6 nM
COc1cncc(OC)c1C1CCCC(=O)N1Cc1cccc(-n2cccn2)n1 (centres unmarked) [Example 66, 1-((6-(1H-pyrazol-1-yl)pyridin-2-yl)methyl)-6-(3,5-dimethoxypyridin-4-yl)piperidin-2-one] | 3700 nM | 3100 nM
COc1cncc(OC)c1C1CCCC(=O)N1Cc1cccc(-n2nccn2)c1 (centres unmarked) [Example 67, 1-(3-(2H-1,2,3-triazol-2-yl)benzyl)-6-(3,5-dimethoxypyridin-4-yl)piperidin-2-one] | 156 nM | 163 nM
COc1cncc(OC)c1C1CCCC(=O)N1Cc1cccc(-c2ccccc2)c1 (centres unmarked) [Example 68, 1-([1,1′-biphenyl]-3-ylmethyl)-6-(3,5-dimethoxypyridin-4-yl)piperidin-2-one] | 31 nM | 45 nM
COc1cccc(OC)c1C1CCCC(=O)N1Cc1cnc(OC(F)F)c(C)c1 (centres unmarked) [Example 69, 1-((6-(difluoromethoxy)-5-methylpyridin-3-yl)methyl)-6-(2,6-dimethoxyphenyl)piperidin-2-one] | 77 nM | 247 nM
COc1cccc(OC)c1C1CCCC(=O)N1Cc1csc(C)n1 (centres unmarked) [Example 71, 6-(2,6-dimethoxyphenyl)-1-((2-methylthiazol-4-yl)methyl)piperidin-2-one] | 6190 nM | > 12600 nM
COc1cccc(OC)c1C1CCCCC(=O)N1Cc1cccc(-c2ccccc2)c1 (centres unmarked) [Example 72, 1-([1,1′-biphenyl]-3-ylmethyl)-7-(2,6-dimethoxyphenyl)azepan-2-one] | 12 nM | 3 nM
COc1cccc(OC)c1C1CCCCC(=O)N1Cc1ccc(Oc2ccccc2)cc1 (centres unmarked) [Example 73, 7-(2,6-dimethoxyphenyl)-1-(4-phenoxybenzyl)azepan-2-one] | 187 nM | 186 nM
COc1cccc(OC)c1C1CCCCC(=O)N1Cc1cccc(Oc2ccccc2)c1 (centres unmarked) [Example 74, 7-(2,6-dimethoxyphenyl)-1-(3-phenoxybenzyl)azepan-2-one] | 98 nM | 137 nM
COc1cccc(OC)c1C1CCCCC(=O)N1Cc1ccc2ccccc2c1 (centres unmarked) [Example 75, 7-(2,6-dimethoxyphenyl)-1-(naphthalen-2-ylmethyl)azepan-2-one] | 32 nM | 12 nM
COc1cccc(OC)c1C1CCCCC(=O)N1Cc1ccc(-c2ccccc2)cc1 (centres unmarked) [Example 77, 1-([1,1′-biphenyl]-4-ylmethyl)-7-(2,6-dimethoxyphenyl)azepan-2-one] | 188 nM | 305 nM
COc1cccc(OC)c1C1CCCCC(=O)N1Cc1ccccc1-c1ccccc1 (centres unmarked) [Example 78, 1-([1,1′-biphenyl]-2-ylmethyl)-7-(2,6-dimethoxyphenyl)azepan-2-one] | 806 nM | 323 nM

Source: patent US9242970B2 (ACTELION PHARMACEUTICALS LTD., priority 2010, dated 2016)
